This is an account of results in ChEMBL document CHEMBL1128213, “1-Phenyl-3-(aminomethyl)pyrroles as potential antipsychotic agents. Synthesis and dopamine receptor binding” (J Med Chem, 1995).

Assay [1] addresses T1, D(4) dopamine receptor (Homo sapiens, UniProt P21917).
T1 sequence (P21917 whole entry): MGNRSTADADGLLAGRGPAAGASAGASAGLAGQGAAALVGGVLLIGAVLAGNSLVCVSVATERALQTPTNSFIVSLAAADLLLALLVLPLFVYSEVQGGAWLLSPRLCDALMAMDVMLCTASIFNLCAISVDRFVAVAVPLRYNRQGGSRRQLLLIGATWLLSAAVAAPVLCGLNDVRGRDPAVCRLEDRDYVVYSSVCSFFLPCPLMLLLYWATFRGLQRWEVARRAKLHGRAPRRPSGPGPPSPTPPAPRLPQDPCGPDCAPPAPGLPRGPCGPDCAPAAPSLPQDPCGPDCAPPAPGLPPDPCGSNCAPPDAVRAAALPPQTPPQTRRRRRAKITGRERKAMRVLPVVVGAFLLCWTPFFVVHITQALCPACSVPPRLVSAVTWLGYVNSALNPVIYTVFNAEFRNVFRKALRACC
Description: Displacement of [3H]-YM 09151 from human Dopamine receptor D4

The target of assay [2] is D(3) dopamine receptor (Chlorocebus aethiops, UniProt P52703).
Description: Displacement of [3H]-YM 09151 from african monkey Dopamine receptor D3
Assay [3] concerns the target D(2) dopamine receptor (Rattus norvegicus, UniProt P61169). Put plainly: Binding affinity towards Dopamine receptor D2 of rat using [3H]spiperone.

pKi: −log10 of the molar value.

Sequence of D(3) dopamine receptor (P52703 whole entry): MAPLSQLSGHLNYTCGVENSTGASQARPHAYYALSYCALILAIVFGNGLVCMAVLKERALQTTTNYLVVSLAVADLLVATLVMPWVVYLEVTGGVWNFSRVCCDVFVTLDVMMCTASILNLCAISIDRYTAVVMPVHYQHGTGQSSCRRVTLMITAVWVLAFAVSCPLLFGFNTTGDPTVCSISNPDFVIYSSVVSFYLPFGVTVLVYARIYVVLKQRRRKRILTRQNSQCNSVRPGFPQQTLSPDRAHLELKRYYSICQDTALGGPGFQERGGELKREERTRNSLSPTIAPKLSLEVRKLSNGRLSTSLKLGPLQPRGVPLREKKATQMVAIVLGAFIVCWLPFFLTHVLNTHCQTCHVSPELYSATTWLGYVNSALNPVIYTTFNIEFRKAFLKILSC
Sequence of D(2) dopamine receptor (P61169 whole entry): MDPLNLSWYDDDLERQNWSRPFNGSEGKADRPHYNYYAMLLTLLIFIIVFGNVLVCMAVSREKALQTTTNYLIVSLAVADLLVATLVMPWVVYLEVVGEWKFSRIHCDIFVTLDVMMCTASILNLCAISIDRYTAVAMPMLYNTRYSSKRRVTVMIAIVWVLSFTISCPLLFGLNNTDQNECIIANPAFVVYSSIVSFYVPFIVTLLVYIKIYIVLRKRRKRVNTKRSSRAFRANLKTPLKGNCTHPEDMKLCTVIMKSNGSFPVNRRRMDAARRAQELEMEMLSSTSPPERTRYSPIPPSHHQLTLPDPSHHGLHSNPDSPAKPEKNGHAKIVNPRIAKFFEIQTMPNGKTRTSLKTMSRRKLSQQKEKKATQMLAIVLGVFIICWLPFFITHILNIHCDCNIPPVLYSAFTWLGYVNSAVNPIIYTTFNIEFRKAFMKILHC

Broadly, the pKi is the Ki on a negative log10 scale, so that one unit is a factor of ten. Low readings indicate a high Ki, high ones a low Ki. For the compound `c1ccc(C2CCN(Cc3ccn(-c4ccccc4)c3)CC2)cc1`, the values for the pKi in assay [1] and in assay [2] were 8.05 and 7.21, respectively.

`COc1ccccc1N1CCN(Cc2ccc(-c3ccccc3)n2C)CC1` gave a pKi in assay [3] of 9.10. With `O=c1[nH]c2ccccc2n1C1CCN(Cc2ccn(-c3ccccc3)c2)CC1`, the pKi is 6.19 in assay [1] and 6.40 in assay [2].

`OC1(c2ccc(Cl)cc2)CCN(Cc2ccn(-c3ccccc3)c2)CC1`: the pKi is 6.49 in assay [1] and 6.32 in assay [2]. In the case of `C1=C(c2ccccc2)CCN(Cc2ccn(-c3ccccc3)c2)C1`, the negative-log Ki (pKi) in assay [1] is 8.40. The same measure, in the same setting: then `COc1ccccc1N1CCN(Cc2ccn(-c3ccccc3)c2)CC1`, with 8.89. In the case of `c1ccc(-n2ccc(CN3CCN(c4ccccn4)CC3)c2)cc1`, the pKi in assay [1] was 8.80; in assay [2], 6.82. For `c1ccc(N2CCN(Cc3ccn(-c4ccccc4)c3)CC2)cc1`, in that order: 8.40 and 7.31. As to `O=C1NCN(c2ccccc2)C12CCN(Cc1ccn(-c3ccccc3)c1)CC2`, the negative-log Ki (pKi) in assay [1] is 6.70; in assay [2] it was 7.05. The corresponding values for `OC1(c2cccc(C(F)(F)F)c2)CCN(Cc2ccn(-c3ccccc3)c2)CC1` are 6.31 and 6.38. Take `CN1CCN(C2=Nc3cc(Cl)ccc3Nc3ccccc32)CC1` [CLOZAPINE]: in assay [2], the pKi is 6.33.
